pIC50: −log10 of the molar value. Positions of bridges follow the written chain, without caps; N, C: chain ends. Non-standard residues stand in square brackets, D forms with d. Residues, ends and D or L forms follow the SMILES beside them. *: point of attachment. GABA = NCCCC(=O)O; NHOH = ON*
Tests used:
Assay in all cases: KDAC inhibition assay, Caliper EZ Reader II
Assay type in all cases: biochemical
recombinant human KDAC8 = molecular target: T1, recombinant human KDAC8 (Homo sapiens, UniProt Q9BY41); conditions: for KDAC Inhibition Activity KDAC8 (% inhibition): % inhibition at 30 μM
T1 construct: purchased BPS Bioscience
T1 sequence (Q9BY41 1-377): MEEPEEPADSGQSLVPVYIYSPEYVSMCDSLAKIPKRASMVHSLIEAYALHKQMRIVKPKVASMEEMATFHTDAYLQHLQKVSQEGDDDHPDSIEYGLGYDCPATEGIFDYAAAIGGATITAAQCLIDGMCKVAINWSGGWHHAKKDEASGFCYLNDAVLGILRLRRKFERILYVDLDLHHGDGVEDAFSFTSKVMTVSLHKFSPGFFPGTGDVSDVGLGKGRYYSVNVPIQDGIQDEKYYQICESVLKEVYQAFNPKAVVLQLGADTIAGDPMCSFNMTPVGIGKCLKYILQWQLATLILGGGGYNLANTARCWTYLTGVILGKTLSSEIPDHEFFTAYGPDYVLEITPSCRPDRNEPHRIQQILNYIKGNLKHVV

recombinant human KDAC1 = molecular target: T2, recombinant human KDAC1 (Homo sapiens, UniProt Q13547); conditions: for KDAC Inhibition Activity KDAC1 (% inhibition): % inhibition at 30 μM
T2 construct: purchased BPS Bioscience

recombinant human KDAC6 = molecular target: T3, recombinant human KDAC6 (Homo sapiens, UniProt Q9UBN7); conditions: for KDAC Inhibition Activity KDAC6 (% inhibition): % inhibition at 30 μM
T3 construct: purchased BPS Bioscience
T3 sequence (Q9UBN7 1-1215): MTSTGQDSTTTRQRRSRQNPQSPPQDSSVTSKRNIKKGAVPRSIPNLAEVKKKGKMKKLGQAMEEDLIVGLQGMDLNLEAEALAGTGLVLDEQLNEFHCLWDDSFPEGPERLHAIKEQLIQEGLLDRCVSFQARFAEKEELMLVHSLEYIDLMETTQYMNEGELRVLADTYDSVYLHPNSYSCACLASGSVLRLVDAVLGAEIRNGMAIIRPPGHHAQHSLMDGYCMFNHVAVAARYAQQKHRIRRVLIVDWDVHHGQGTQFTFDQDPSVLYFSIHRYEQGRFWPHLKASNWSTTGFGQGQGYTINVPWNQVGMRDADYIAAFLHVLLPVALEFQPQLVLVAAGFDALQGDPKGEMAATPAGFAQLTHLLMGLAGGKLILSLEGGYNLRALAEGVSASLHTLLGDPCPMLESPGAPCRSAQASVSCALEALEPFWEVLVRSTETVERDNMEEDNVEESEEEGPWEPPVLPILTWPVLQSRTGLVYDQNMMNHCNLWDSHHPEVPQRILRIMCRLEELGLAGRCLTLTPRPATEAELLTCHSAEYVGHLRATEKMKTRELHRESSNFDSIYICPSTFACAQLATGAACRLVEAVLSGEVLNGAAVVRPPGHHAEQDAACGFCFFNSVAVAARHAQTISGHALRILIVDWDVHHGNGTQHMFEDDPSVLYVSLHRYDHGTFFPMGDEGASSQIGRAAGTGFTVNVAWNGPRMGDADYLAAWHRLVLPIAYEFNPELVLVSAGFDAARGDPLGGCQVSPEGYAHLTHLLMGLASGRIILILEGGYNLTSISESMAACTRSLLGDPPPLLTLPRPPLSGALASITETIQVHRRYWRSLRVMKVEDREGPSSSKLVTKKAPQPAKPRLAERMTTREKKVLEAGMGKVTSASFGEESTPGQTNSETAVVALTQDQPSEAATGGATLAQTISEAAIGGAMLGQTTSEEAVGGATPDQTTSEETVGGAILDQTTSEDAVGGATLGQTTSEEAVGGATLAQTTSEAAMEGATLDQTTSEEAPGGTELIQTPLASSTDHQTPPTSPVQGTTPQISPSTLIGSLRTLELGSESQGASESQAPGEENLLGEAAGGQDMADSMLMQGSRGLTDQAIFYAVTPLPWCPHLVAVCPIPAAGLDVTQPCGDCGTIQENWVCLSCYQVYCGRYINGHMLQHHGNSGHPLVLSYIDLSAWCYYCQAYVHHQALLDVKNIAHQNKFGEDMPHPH

recombinant human KDAC3 = molecular target: T4, recombinant human KDAC3 (Homo sapiens, UniProt O15379); conditions: for KDAC Inhibition Activity KDAC3 (% inhibition): % inhibition at 30 μM
T4 construct: purchased BPS Bioscience
T4 sequence (O15379 whole entry): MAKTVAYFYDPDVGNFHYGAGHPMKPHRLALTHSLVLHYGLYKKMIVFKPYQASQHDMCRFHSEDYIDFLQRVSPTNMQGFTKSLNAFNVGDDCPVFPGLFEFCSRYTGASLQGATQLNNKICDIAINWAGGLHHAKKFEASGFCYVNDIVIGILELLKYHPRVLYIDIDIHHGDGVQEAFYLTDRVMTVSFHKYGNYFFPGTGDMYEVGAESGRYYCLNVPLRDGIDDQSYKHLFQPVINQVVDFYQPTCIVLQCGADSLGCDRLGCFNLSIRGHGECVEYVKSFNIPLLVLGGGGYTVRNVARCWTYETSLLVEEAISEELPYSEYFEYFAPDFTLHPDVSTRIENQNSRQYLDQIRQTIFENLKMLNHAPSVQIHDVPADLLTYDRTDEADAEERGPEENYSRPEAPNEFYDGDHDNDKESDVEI
T4 sequence (Q9Y618 395-489 partner limits assumed): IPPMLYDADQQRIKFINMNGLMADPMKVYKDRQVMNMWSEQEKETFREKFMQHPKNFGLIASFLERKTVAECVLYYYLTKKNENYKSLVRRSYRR

T2 sequence (Q13547 whole entry): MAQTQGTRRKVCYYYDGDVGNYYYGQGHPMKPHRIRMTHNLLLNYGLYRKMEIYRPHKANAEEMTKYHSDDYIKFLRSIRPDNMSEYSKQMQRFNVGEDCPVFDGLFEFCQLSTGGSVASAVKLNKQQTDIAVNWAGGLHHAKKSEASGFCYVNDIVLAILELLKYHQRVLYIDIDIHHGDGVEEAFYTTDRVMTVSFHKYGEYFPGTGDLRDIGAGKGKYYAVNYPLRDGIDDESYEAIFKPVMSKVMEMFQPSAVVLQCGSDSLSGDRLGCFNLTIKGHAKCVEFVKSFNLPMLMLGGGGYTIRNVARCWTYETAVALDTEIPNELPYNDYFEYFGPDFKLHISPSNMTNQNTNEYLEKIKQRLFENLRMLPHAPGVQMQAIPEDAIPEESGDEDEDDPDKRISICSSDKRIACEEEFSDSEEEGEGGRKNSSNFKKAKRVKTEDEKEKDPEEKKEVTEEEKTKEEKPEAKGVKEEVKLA

| Compound | KDAC Inhibition Activity KDAC8 (% inhibition) (recombinant human KDAC8) | KDAC Inhibition Activity KDAC1 (% inhibition) (recombinant human KDAC1) | KDAC Inhibition Activity KDAC6 (% inhibition) (recombinant human KDAC6) | KDAC Inhibition Activity KDAC3 (% inhibition) (recombinant human KDAC3) | inhibition at 30 µM (recombinant human KDAC8) | inhibition at 30 µM (recombinant human KDAC1) | inhibition at 30 µM (recombinant human KDAC6) | inhibition at 30 µM (recombinant human KDAC3) | pIC50 (recombinant human KDAC8; 10-point dose curve from 30 μM) | pIC50 (recombinant human KDAC1; 10-point dose curve from 30 μM) | pIC50 (recombinant human KDAC3; 10-point dose curve from 30 μM, read-out: KDAC Inhibition Activity (IC50) KDAC3) |
| --- | --- | --- | --- | --- | --- | --- | --- | --- | --- | --- | --- |
| Cyclo-^DAsp(^DPro-Pro-Val)-NHCH2CH2CH2SH [Compound 6b] | 8% | Not active | Not active | 9% | – | – | – | – | – | – | – |
| Cyclo-^DAsp(^DPro-Pro-Val)-NHCH2CH2CH2CONHOH [Compound 14b] | 21% | 12.5% | 53% | 27% | – | – | – | – | – | – | – |
| Cyclo-^DAsp(^DPro-Pro-Val)-NHCH2CH2CH2SCH3 [Compound 7b] | 28% | 1.5% | Not active | Not active | – | – | – | – | – | – | – |
| Cyclo-Asp(^DPro-Pro-Val)-NHCH2CH2CH2OH [Compound 10a] | 26% | Not active | 1% | 1% | – | – | – | – | – | – | – |
| CC(C)[C@@H]1NC(=O)[C@@H]2CCCN2C(=O)[C@H]2CCCN2C(=O)C[C@@H](C(=O)NCCCC(=O)NO)NC1=O [Compound 14a, Cyclo-Asp(^DPro-Pro-Val)-NHCH2CH2CH2CONHOH] ([dP]PVD[GABA]-{NHOH}; lactam N-4) | – | – | – | – | 31% | 4.5% | 82% | 67% | – | – | – |
| Cyclo-Asp(Pro-^DPro-Val)-NHCH2CH2CH2S(═O)2CH3 [Compound 21a] | 23% | Not active | Not active | Not active | – | – | – | – | – | – | – |
| Cyclo-^DAsp(^DPro-Pro-Val)-NHCH2CH2S—SCH2CH2NH2 [Compound 15b] | Not active | 5% | 7% | 7% | – | – | – | – | – | – | – |
| Cyclo-Asp(Pro-^DPro-Val)-NHCH2CH2CH2S(═O)CH3 [Compound 20a] | 19% | Not active | Not active | Not active | – | – | – | – | – | – | – |
| Cyclo-Asp(^DPro-Pro-Val)-NHCH2CH2SH [Compound 5a] | 12% | Not active | 14% | Not active | – | – | – | – | – | – | – |
| Cyclo-Asp(Pro-^DPro-Val)-NHCH2CH2CH2COOH [Compound 24a] | 36% | 4% | Not active | 8% | – | – | – | – | – | – | – |
| Cyclo-Asp(Pro-^DPro-Val)-NHCH2CH2S—SCH2CH2NH2 [Compound 26a] | 10% | 15% | 10% | 5% | – | – | – | – | – | – | – |
| Cyclo-^DAsp(Pro-^DPro-Val)-NHCH2CH2CH2SCH3 [Compound 19b] | 27% | 1% | Not active | Not active | – | – | – | – | – | – | – |
| CC(C)[C@@H]1NC(=O)[C@H]2CCCN2C(=O)[C@@H]2CCCN2C(=O)C[C@@H](C(=O)NCCCC(=O)NO)NC1=O [Compound 25a, Cyclo-Asp(Pro-^DPro-Val)-NHCH2CH2CH2CONHOH] (P[dP]VD[GABA]-{NHOH}; lactam N-4) | – | – | – | – | 34% | 25% | 80% | 45% | < 4.52 | < 4.52 | < 4.52 |

— patent US10421778B2, “Isoform-selective lysine deacetylase inhibitors” (WASHINGTON UNIVERSITY, priority 2015, dated 2019)
